# Assays:
# ICR mice = test: Host pretreatment before i.v. CLDC or naked DNA, tissue luciferase activity; assay type: in vivo, mouse
# Description: Plasmid: p4241 (HCMV-luciferase, see Liu et al., 1997).
# Liposomes: DOTIM:chol MLV in 1:1 molar ratio.
# DNA:Liposome Ratio: liposome:plasmid 1:16 (μg plasmid DNA to nanomoles total lipid).
# Pretreatment: Individual mice in groups of 5 received either 200 μl of D5W only by IV injection, 1 mg dexamethasone (Sigma) in 200 μl D5W by IV tail vein injection, 250 μg Ticlopidine (Sigma) dissolved in 200 μl D5W by IV injection, 175 μg ammonium chloride (Fisher) dissolved in 1000 μl D5W by IP injection, respectively, four hours before IV injection of CLDC. For 4-APP pretreatment, a group of 5 mice were IP injected with 1.5 mg of 4-Aminopyrazolo(3,4d)-pyrimidine (Sigma, A2630) dissolved in 1 ml 0.01 M sodium phosphate, pH 2.5, daily for three days before receiving an IV injection of p4241-containing CLDC as described above. Another group of 5 mice received 1 ml 0.01 M Sodium Phosphate, pH 2.5 solution by IP injection daily for three days before receiving an injection of IV CLDC as above, thus serving as control for 4-APP pretreatment group.
# DNA dose: 40 μg plasmid DNA in 200 μl of 5% dextrose in water (D5@) was injected by tail vein per mouse.
# Animals: ICR mice:female, 25 grams (Simonsen Labs, Gilroy, Calif.).
# Quantitation of luciferase: Twenty-four hours after injection of CLDC, mice were sacrificed in a CO2 chamber, and lungs, heart, spleen and liver were collected and assayed for luciferase activity. Relative light units were converted to luciferase activity, and an unpaired, two side Student's t test applied for statistical analysis of potential differences between groups as described previously (Liu et al., 1997).
# In another experiment, the effect of pretreatment on subsequent expression of the same plasmids delivered as naked DNA was examined. Pretreated animals were injected with 6.25 mg of mannitol (Sigma, MO) in 200 microliters of water 2 hours or 24 hours prior to iv administration of the p4241 luciferase vector as naked DNA in water, 50% glycerol or D5W. Control animals received water alone as a pretreatment. […]
# murine B 16 cells = test: Inhibition of in vitro CLDC-mediated transfection (luciferase) by polysaccharide pretreatment
# B16 cells, PPC-1 cells = test: Effect on calcium phosphate, adenoviral and electroporation transfection in vitro; assay type: cell-based
# Description: B16 cells were electroporated with p4241 as per BioRad (Hercules, Calif.) instructions for the GenePulser II. Calcium phosphate transfections were performed as described in the manufacturer's instructions (Gibco BRL, Grand Island, N.Y.). Adenoviral infection of PPC-1 cells was performed as previously described (Graham and […], 1991).
# B16 cells = test: DNA uptake by cells after CLDC transfection (luciferase, Southern analysis of nuclear and total DNA); assay type: cell-based, mouse
# Description: Southern analysis. Isolation of total DNA from mouse tissues was performed as described (Liu et al., 1997). Approximately 2×10^6 B16 cells were cultured in 100 mm dishes for each DNA extraction from cultured cells. Two hundred nanograms of DNA per lane were fractionated on 1% agarose/1X TAE gels overnight. Blotting onto Hybond membrane (Amersham, Arlington Heights, Ill.), prehybridization, hybridization, and washes were performed as described (Sambrook et al., 1989). A 1.2 kb HindIII/EcoRV gel-purified fragment of luciferase from p4241 was radioactively labelled using the Random Primed DNA Labeling Kit (Boehringer Mannheim, Indianapolis, Ind.). Nuclei were isolated from 2×10^6 B16 cells as described (Sambrook et al., 1989), and lysed in NP40 lysis buffer (10 mM Tris, pH 7.4, 10 mM sodium chloride, 3 mM magnesium chloride, and 0.5% nonidet P-40). Nuclear DNA was then isolated from washed nuclei using the same technique as for total DNA isolation (Sambrook et al., 1989).
# Fucoidan inhibited CLDC-mediated transfection in vitro by blocking DNA uptake by cells. Nuclei were isolated from cells untreated or pretreated with fucoidan and subsequently transfected with CLDC, and nuclear DNA was assayed for the presence of the luciferase plasmid used in making the complex. The nuclei of cells untreated with fucoidan contained luciferase plasmid, as expected from the high levels of luciferase activity observed in untreated cells. Therefore, DNA did traverse the cell membranes of untreated cells.
# ICR female mice = test: Pretreatment of mice before intravenous CLDC (p4241): luciferase, Southern analysis, rhodamine-lipid; assay type: in vivo, mouse
# Description: In vivo transfections. Each mouse received 50 μg p4241 complexed to DOTIM:cholesterol MLV containing 1 mole % rhodamine-PE at a ratio of 1:16 (μg DNA per nmole total lipid). Approximately 25 g ICR female mice (Simonson, Gilroy, Calif.) received 200 μl of CLDC intravenously by tail vein injection. Pretreatments of mice were also by intravenous tail vein injections. Fucoidan, dissolved in phosphate buffered saline (PBS), was pre-injected at a dosage of 500 μg per mouse 0, 1, 2, 10, 24, or 48 hrs prior to CLDC injection. Heparinase I and III (Sigma) were dissolved in 0.15 M sodium chloride at a concentration of 75 units per 100 μl, and 100 μl per mouse were injected 15 minutes prior to injection of CLDC. Control mice were preinjected at appropriate times with either PBS or 0.15 M sodium chloride. As an additional control, heparinase I was boiled for 10 minutes to denature and deactivate the enzyme prior to pre-injection. Mice were harvested 24 hours post-CLDC injection, and pieces of lung, liver, heart, and spleen were placed in 1X lysis buffer (Promega, Madison, Wis.) on ice for luciferase assays (Liu et al., 1997). Samples of liver and lung were frozen on dry ice prior to Bligh Dyer extractions for rhodamine-liposome fluorescence analysis and isolation of DNA for Southern analysis as described (Liu et al., 1997).
# [1] = cells pretreated for 30 minutes with 1 μM
# [2] = iv 15 minutes before CLDC injection
compound,measurement,setting,value
"Nc1ncnc2[nH]ncc12 [Plasmid 4-APP, 4-Aminopyrazolo(3,4d)-pyrimidine]",luciferase activity versus buffer-pretreated mice,"ICR mice; preinjection before iv CLDC (p4241), 24 hours after CLDC",significantly increased luciferase activity
OC[C@@H](O)[C@@H](O)[C@H](O)[C@H](O)CO [mannitol],in vivo expression of luciferase from p4241 versus controls,ICR mice; 6.25 mg 2 hours prior to iv naked DNA,significantly higher
same,luciferase expression,ICR mice; 6.25 mg 24 hours prior to p4241,Some increase
dextran,CLDC transfection at high concentrations,murine B 16 cells,significant elevation of transfection
same,CLDC transfection in vitro after pretreatment of cells,murine B 16 cells,failed to inhibit transfection
dextran sulfate,CLDC transfection in vitro after pretreatment of cells,murine B 16 cells,largely blocked
same,concentration sufficient to block transfection,murine B 16 cells; murine B 16 cells,10 nM
fucoidan,transfection by calcium phosphate,"B16 cells, PPC-1 cells",inhibited the transfection
same,luciferase DNA in nuclei,B16 cells; [1],no luciferase DNA in their nuclei
same,luciferase expression of cells,B16 cells; [1],did not express luciferase
same,Southern analysis of total DNA from whole cell extracts,B16 cells; pretreated cultured cells,failed to show evidence of any DNA crossing the cell membranes
same,luciferase activity in lung and heart tissues,"ICR female mice; 500 μg per mouse iv, 1 hour before CLDC",drastic reductions in luciferase activity
same,CLDC mediated transfection of lung cells,ICR female mice; 10 hours post exposure,still inhibits CLDC mediated transfection of lung cells
same,rhodamine-lipid found in the lung and liver,ICR female mice; one hour pretreatment,significantly decreased levels of rhodamine-lipid
same,p4241 plasmid in total DNA from lungs and livers (Southern analysis),ICR female mice; pretreated for 1 hour,decreased levels of p4241 plasmid
same,magnitude of luciferase depression in tissues,ICR female mice; pretreated for 1 hour in vivo,approximately 100 fold
same,decrease in p4241 plasmid in nuclear DNA isolated from lungs,ICR female mice; treated versus untreated animals,3 fold
same,CLDC transfection in vitro after pretreatment of cells,murine B 16 cells,largely blocked
same,"effect on CLDC-mediated transfection, cells pretreated",murine B 16 cells; 10 nM,little effect
heparin,CLDC-mediated gene transfer following intravenous injection of CLDC into mice,"ICR female mice; mouse, in vivo, iv",abolished CLDC-mediated gene transfer
same,CLDC transfection in vitro after pretreatment of cells,murine B 16 cells,largely blocked
heparinase I,"reporter plasmid DNA in lungs, fold less than control lungs (Southern analysis)",ICR female mice; [2],2 fold
same,rhodamine labelled lipid recovered from lungs,ICR female mice; [2],significantly decreased the levels of rhodamine labelled lipid
same,"transfection efficiency of CLDC (luciferase) in lungs, hearts and spleens",ICR female mice; [2],significantly decreased

# — US20020065213A1, “METHODS AND COMPOSITIONS FOR NONVIRAL GENE DELIVERY” (priority 1998, published 2002)
